Results from patent publication US20190031618A1, “BENZIMIDAZOLE DERIVATIVES USEFUL AS CB-1 INVERSE AGONISTS” (Janssen Pharmaceutica NV, priority 2015, published 2019).

Tests used:
[1] = target: Human CB1R (Cannabinoid receptor 1) (Homo sapiens, UniProt P21554); assay: CB-1 in vitro cAMP (HTRF) assay; format: cell-based; details: HEK cells, cAMP HTRF, 250 nM forskolin; mean where tested more than once; read-out: CB1 HEK_cAMP EC50
Summary of the method: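 Intracellular cAMP from HTRF ratio (d2-cAMP vs Eu-cryptate anti-cAMP), converted to nM via per-plate standards, in stable human CB1R HEK-293 cells.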

[2] = target: Human CB2R (Cannabinoid receptor 2) (Homo sapiens, UniProt P34972); assay: CB-2 in vitro cAMP (HTRF) assay; format: cell-based; details: HEK cells, cAMP HTRF, 250 nM forskolin; mean where tested more than once; read-out: CB2 HEK_cAMP EC50
Human CB2R (Cannabinoid receptor 2), sequence (P34972 whole entry): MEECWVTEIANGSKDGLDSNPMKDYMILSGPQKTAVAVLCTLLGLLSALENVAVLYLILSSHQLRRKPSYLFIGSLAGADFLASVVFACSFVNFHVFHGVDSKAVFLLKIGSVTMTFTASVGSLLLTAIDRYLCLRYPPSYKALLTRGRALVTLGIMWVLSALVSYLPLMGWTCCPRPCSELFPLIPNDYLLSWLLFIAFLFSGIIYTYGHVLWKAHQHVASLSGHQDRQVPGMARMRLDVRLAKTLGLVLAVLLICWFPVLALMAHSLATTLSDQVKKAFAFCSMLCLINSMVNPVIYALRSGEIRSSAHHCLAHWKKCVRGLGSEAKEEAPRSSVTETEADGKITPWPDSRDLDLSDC
Summary of the method: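 Competitive HTRF read-out (d2-labelled cAMP vs cryptate antibody) quantifies cAMP in stably transfected HEK-293 cells, seeded the day before at 4E5 cells/mL. Stimulation buffer: HBSS, 5 mM HEPES, 0.1% BSA, 0.5 mM IBMX; forskolin prepared at 1.5 μM in buffer; compounds serially diluted 1/3 in DMSO.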

Human CB1R (Cannabinoid receptor 1), sequence (P21554 whole entry): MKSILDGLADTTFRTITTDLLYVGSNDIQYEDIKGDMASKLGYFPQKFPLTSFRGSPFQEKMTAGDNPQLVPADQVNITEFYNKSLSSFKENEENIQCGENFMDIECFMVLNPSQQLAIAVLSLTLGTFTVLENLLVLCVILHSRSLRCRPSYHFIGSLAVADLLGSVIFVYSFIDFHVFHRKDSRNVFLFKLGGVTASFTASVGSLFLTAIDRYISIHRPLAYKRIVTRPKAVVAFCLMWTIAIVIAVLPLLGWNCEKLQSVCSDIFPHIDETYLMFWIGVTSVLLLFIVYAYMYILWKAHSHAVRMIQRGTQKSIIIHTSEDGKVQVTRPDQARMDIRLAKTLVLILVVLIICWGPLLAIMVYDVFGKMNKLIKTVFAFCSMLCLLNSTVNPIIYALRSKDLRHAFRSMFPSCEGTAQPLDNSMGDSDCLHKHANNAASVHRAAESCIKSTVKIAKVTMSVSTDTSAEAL

Row | Structure (SMILES) | EC50 [1] [µM] | EC50 [2] [µM]
1 | O=S(=O)(N1CCC(n2c(C3CC3)nc3ccc(C(CO)(c4ccc(Cl)cc4)c4ccc(Cl)cc4)cc32)CC1)C(F)(F)F [Example 245] | 0.283 | > 10
2 | O=C(O)c1ccc(C(=O)N2CCC(n3c(C4CC4)nc4ccc(C(c5ccc(Cl)cc5)c5ccc(Cl)cc5)cc43)CC2)cc1 [Example 246] | 1.43 | > 10
3 | NC(=O)CS(=O)(=O)N1CCC(n2c(C3CC3)nc3ccc(C(c4ccc(Cl)cc4)c4ccc(Cl)cc4)cc32)CC1 [Example 247] | 0.129 | > 10
4 | O=C(O)CS(=O)(=O)N1CCC(n2c(C3CC3)nc3ccc(C(c4ccc(Cl)cc4)c4ccc(Cl)cc4)cc32)CC1 [Example 248] | 4.24 | > 10
5 | NC(=O)COc1ccc(S(=O)(=O)N2CCC(n3c(C4CC4)nc4ccc(C(c5ccc(Cl)cc5)c5ccc(Cl)cc5)cc43)CC2)cc1 [Example 249] | 0.005 | 1.71
6 | COc1cc(S(=O)(=O)N2CCC(n3c(C4CC4)nc4ccc(C(c5ccc(Cl)cc5)c5ccc(Cl)cc5)cc43)CC2)ccc1C(N)=O [Example 250] | 0.0029 | 9.4
7 | COc1cc(S(=O)(=O)N2CCC(n3c(C4CC4)nc4ccc(C(c5ccc(Cl)cc5)c5ccc(Cl)cc5)cc43)CC2)ccc1C(=O)O [Example 251] | 0.0058 | 0.73
8 | NC(=O)c1ccc(S(=O)(=O)N2CCC(n3c(C4CC4)nc4ccc(C(c5ccc(Cl)cc5)c5ccc(Cl)cc5)cc43)CC2)cc1Cl [Example 252] | 0.0131 | 6.24
9 | O=C(O)c1ccc(S(=O)(=O)N2CCC(n3c(C4CC4)nc4ccc(C(c5ccc(Cl)cc5)c5ccc(Cl)cc5)cc43)CC2)cc1Cl [Example 253] | 0.0047 | 2.42
10 | NC(=O)c1ccc(C(=O)N2CCC(n3c(C4CC4)nc4ccc(C(c5ccc(Cl)cc5)c5ccc(Cl)cc5)cc43)CC2)cc1 [Example 254] | 0.0366 | 1.25
11 | O=S(=O)(N1CCC(n2c(C3COC3)nc3ccc(C(O)(c4ccc(Cl)cc4)c4ccc(Cl)cc4)cc32)CC1)C(F)(F)F [Example 255] | 0.0073 | > 10
12 | O=C(O)COc1ccc(S(=O)(=O)N2CCC(n3c(C4CC4)nc4ccc(C(c5ccc(Cl)cc5)c5ccc(Cl)cc5)cc43)CC2)cc1 [Example 256] | 0.129 | > 10
13 | O=S(=O)(c1ccc(O)cc1)N1CCC(n2c(C3CC3)nc3ccc(C(c4ccc(Cl)cc4)c4ccc(Cl)cc4)cc32)CC1 [Example 257] | 0.0054 | > 10
14 | O=S(=O)(c1ccccc1O)N1CCC(n2c(C3CC3)nc3ccc(C(c4ccc(Cl)cc4)c4ccc(Cl)cc4)cc32)CC1 [Example 258] | 0.0201 | > 10
15 | NC(=O)c1cccc(S(=O)(=O)N2CCC(n3c(C4CC4)nc4ccc(C(c5ccc(Cl)cc5)c5ccc(Cl)cc5)cc43)CC2)c1 [Example 260] | 0.0015 | > 10
16 | COc1cccc(S(=O)(=O)N2CCC(n3c(C4CC4)nc4ccc(C(c5ccc(Cl)cc5)c5ccc(Cl)cc5)cc43)CC2)c1 [Example 261] | 0.0219 | > 10
17 | NC(=O)c1ccc(S(=O)(=O)N2CCC(n3c(C4CC4)nc4ccc(C(c5ccc(Cl)cc5)c5ccc(Cl)cc5)cc43)CC2)cc1 [Example 262] | 0.0155 | > 10
18 | CCc1nc2ccc(C(C(=O)O)(c3ccc(Cl)cc3)c3ccc(Cl)cc3)cc2n1C1CCN(S(=O)(=O)C(F)(F)F)CC1 [Example 266] | 0.0184 | > 10
19 | O=C(O)C(c1ccc(Cl)cc1)(c1ccc(Cl)cc1)c1ccc2nc(C3CC3)n(C3CCN(S(=O)(=O)C(F)(F)F)CC3)c2c1 [Example 267] | 0.007 | > 10
20 | O=C(O)CCC(=O)N1CCC(n2c(C3CC3)nc3ccc(C(c4ccc(Cl)cc4)c4ccc(Cl)cc4)cc32)CC1 [Example 269] | 1.03 | > 10
21 | CS(=O)(=O)N1CCC(n2c(C3CC3)nc3ccc(C(c4ccc(Cl)cc4)c4ccc(Cl)cc4)cc32)CC1 [Example 270] | 0.0066 | 9.9
22 | O=S(=O)(N1CCC(n2c(C3CCCO3)nc3ccc(C(c4ccc(Cl)cc4)c4ccc(Cl)cc4)cc32)CC1)C(F)(F)F (stereo not drawn) [Example 271] | 0.0021 | > 10
23 | O=S(=O)(c1ccccc1C(F)(F)F)N1CCC(n2c(C3CC3)nc3ccc(C(c4ccc(Cl)cc4)c4ccc(Cl)cc4)cc32)CC1 [Example 272] | 0.0108 | > 10
24 | NC(=O)CCC(=O)N1CCC(n2c(C3CC3)nc3ccc(C(c4ccc(Cl)cc4)c4ccc(Cl)cc4)cc32)CC1 [Example 273] | 0.0336 | 9.6
25 | NS(=O)(=O)N1CCC(n2c(C3CC3)nc3ccc(C(c4ccc(Cl)cc4)c4ccc(Cl)cc4)cc32)CC1 [Example 274] | 0.133 | > 10
26 | COc1ccccc1S(=O)(=O)N1CCC(n2c(C3CC3)nc3ccc(C(c4ccc(Cl)cc4)c4ccc(Cl)cc4)cc32)CC1 [Example 275] | 0.0016 | > 10

Row | Structure (SMILES) | EC50 [1] [µM] | EC50 [2] [µM]
27 | NC(=O)CC(=O)N1CCC(n2c(C3CC3)nc3ccc(C(c4ccc(Cl)cc4)c4ccc(Cl)cc4)cc32)CC1 [Example 278] | 0.0505 | > 10
28 | O=S(=O)(c1ccc(OC(F)(F)F)cc1)N1CCC(n2c(C3CC3)nc3ccc(C(c4ccc(Cl)cc4)c4ccc(Cl)cc4)cc32)CC1 [Example 279] | 0.0322 | > 10
29 | O=S(=O)(c1ccc(C(F)(F)F)cc1)N1CCC(n2c(C3CC3)nc3ccc(C(c4ccc(Cl)cc4)c4ccc(Cl)cc4)cc32)CC1 [Example 280] | 0.0105 | > 10
30 | COc1ccc(S(=O)(=O)N2CCC(n3c(C4CC4)nc4ccc(C(c5ccc(Cl)cc5)c5ccc(Cl)cc5)cc43)CC2)cc1 [Example 281] | 0.0125 | > 10
31 | O=S(=O)(c1ccc(F)cc1)N1CCC(n2c(C3CC3)nc3ccc(C(c4ccc(Cl)cc4)c4ccc(Cl)cc4)cc32)CC1 [Example 282] | 0.0073 | > 10
32 | O=S(=O)(c1ccccc1)N1CCC(n2c(C3CC3)nc3ccc(C(c4ccc(Cl)cc4)c4ccc(Cl)cc4)cc32)CC1 [Example 283] | 0.0036 | 0.96
33 | O=S(=O)(c1cccc(C(F)(F)F)c1)N1CCC(n2c(C3CC3)nc3ccc(C(c4ccc(Cl)cc4)c4ccc(Cl)cc4)cc32)CC1 [Example 284] | 0.0057 | > 10
34 | O=S(=O)(N1CCC(n2c(C3CCCO3)nc3ccc(C(O)(c4ccc(Cl)cc4)c4ccc(Cl)cc4)cc32)CC1)C(F)(F)F (stereo not drawn) [Example 285] | 0.0034 | > 10
35 | COc1cc(C(c2ccc(Cl)cc2)c2ccc(Cl)cc2)cc2c1nc(C1CC1)n2C1CCN(S(=O)(=O)C(F)(F)F)CC1 [Example 287] | 0.0024 | 4.59
36 | O=S(=O)(N1CCC(Cn2c(C3CCC3)nc3ccc(C(c4ccc(Cl)cc4)c4ccc(Cl)cc4)cc32)CC1)C(F)(F)F [Example 288] | 0.0023 | > 10
37 | CC(C)(C)c1nc2ccc(C(c3ccc(Cl)cc3)c3ccc(Cl)cc3)cc2n1C1CCN(S(=O)(=O)C(F)(F)F)CC1 [Example 291] | 2.26 | > 10
38 | CC(C)(C)c1nc2ccc(C(O)(c3ccc(Cl)cc3)c3ccc(Cl)cc3)cc2n1C1CCN(S(=O)(=O)C(F)(F)F)CC1 [Example 292] | 2.89 | > 10
39 | O=S(=O)(N1CCC(n2c(CO)nc3ccc(C(O)(c4ccc(Cl)cc4)c4ccc(Cl)cc4)cc32)CC1)C(F)(F)F [Example 293] | 7.43 | > 10
40 | O=S(=O)(N1CCC(Cn2c(C3CC3)nc3ccc(C(O)(c4ccc(Cl)cc4)c4ccc(Cl)cc4)cc32)CC1)C(F)(F)F [Example 294] | 0.0046 | > 10
41 | O=S(=O)(N1CCC(O)(Cn2c(C3CC3)nc3ccc(C(c4ccc(Cl)cc4)c4ccc(Cl)cc4)cc32)CC1)C(F)(F)F [Example 295] | 0.005 | 9
42 | CCc1nc2ccc(C(c3ccc(Cl)cc3)c3ccc(Cl)cc3)cc2n1C1Cc2ccccc2C1 [Example 297] | 0.615 | > 10
43 | Clc1ccc(C(c2ccc(Cl)cc2)c2ccc3ncn(C4Cc5ccccc5C4)c3c2)cc1 [Example 298] | 0.906 | 9
44 | CC(C(O)c1ccccc1)n1c(C2CC2)nc2ccc(C(c3ccc(Cl)cc3)c3ccc(Cl)cc3)cc21 (stereo not drawn) [Example 299] | 0.578 | 1.03
45 | Clc1ccc(C(c2ccc(Cl)cc2)c2ccc3nc(C4CC4)n(C4Cc5ccccc5C4)c3c2)cc1 [Example 300] | 0.163 | > 10
46 | O=S(=O)(N1CCC(n2c(C3CC3)nc3ccc(C(O)(c4ccc(Cl)cc4)c4ccc(Cl)cc4)cc32)CC1)C(F)(F)F [Example 303] | 0.0174 | > 10
47 | CCc1nc2ccc(C(O)(c3ccc(Cl)cc3)c3ccc(Cl)cc3)cc2n1C1CCN(S(=O)(=O)C(F)(F)F)CC1 [Example 308] | 0.0636 | > 10
48 | FC(F)(F)c1ccc(CCn2c(C3CC3)nc3ccc(C(c4ccc(Cl)cc4)c4ccc(Cl)cc4)cc32)cc1 [Example 309] | 0.0034 | 5.2
49 | CCc1nc2ccc(C(c3ccc(Cl)cc3)c3ccc(Cl)cc3)cc2n1CCc1cccc(Cl)c1 [Example 311] | 0.0172 | 8.6
50 | CCc1nc2ccc(C(c3ccc(Cl)cc3)c3ccc(Cl)cc3)cc2n1CCc1ccc(C(F)(F)F)cc1 [Example 314] | 0.0201 | 2.79
51 | O=S(=O)(N1CCC(n2c(C3CCC3)nc3ccc(C(O)(c4ccc(Cl)cc4)c4ccc(Cl)cc4)cc32)CC1)C(F)(F)F [Example 319] | 0.0225 | > 10
